System: Mitochondria-located protein genes
Assay: DNA chip mRNA expression in yeast, mitochondria-located protein genes (Table 2)
Assay type: cell-based, Saccharomyces cerevisiae S288C
Conditions: cells incubated two hours with the chemical substance
In short: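 Ratios compare mRNA levels in stressed and control S. cerevisiae. Each toxicant was applied for two hours to log-phase cultures at 25° C. at a sub-lethal, growth-inhibiting level; fluorescent cDNA (Cy3- or Cy5-dUTP) was hybridized to a genome-wide yeast chip for over 12 h at 65° C.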

Measured: The level of expressed mRNA in the presence of chemical substance/The level of expressed mRNA in the absence of chemical substance

Cl[C@H]1[C@H](Cl)[C@@H](Cl)[C@@H](Cl)[C@H](Cl)[C@H]1Cl [(7), γ-hexachlorocyclohexane]
3.7: yeast gene YGR008C
2.5: yeast gene YOR037W
1.8: yeast gene YCR083W | yeast gene YLR259C | yeast gene YML129C | yeast gene YPR047W
0.3: yeast gene YLL041C
8.0: yeast gene YBL038W
1.9: yeast gene YMR023C
1.7: yeast gene YDR231C | yeast gene YGR076C | yeast gene YJL096W | yeast gene YMR083W | yeast gene YOL096C | yeast gene YOR020C
6.9: yeast gene YKL142W
1.5: yeast gene YBR044C | yeast gene YBR221C | yeast gene YKL016C | yeast gene YKL170W | yeast gene YOR187W | yeast gene YPR067W | yeast gene YPR134W
1.4: yeast gene YBR251W | yeast gene YCL057W | yeast gene YFL016C | yeast gene YKL003C | yeast gene YNL071W | yeast gene YOR316C | yeast gene YPR024W
1.1: yeast gene YBR003W | yeast gene YDL181W | yeast gene YDR377W | yeast gene YGL018C | yeast gene YLR295C | yeast gene YNL073W
2.2: yeast gene YIL155C
0.8: yeast gene YDL067C | yeast gene YJL166W | yeast gene YML120C | yeast gene YMR152W | yeast gene YMR203W | yeast gene YPL040C
2.3: yeast gene YMR035W
0.7: yeast gene YEL024W | yeast gene YHR008C | yeast gene YJR077C | yeast gene YPL215W
2.0: yeast gene YBR122C
2.1: yeast gene YGR028W | yeast gene YKL194C
1.3: yeast gene YDR079W | yeast gene YGR062C | yeast gene YOR130C | yeast gene YPL262W
3.9: yeast gene YDR258C | yeast gene YGR244C
1.6: yeast gene YER178W | yeast gene YJL180C | yeast gene YOR100C
1.2: yeast gene YBR185C | yeast gene YBR282W | yeast gene YCR046C | yeast gene YDR347W | yeast gene YML054C | yeast gene YMR089C | yeast gene YMR267W | yeast gene YNL055C | yeast gene YOR150W | yeast gene YPL134C | yeast gene YPL135W | yeast gene YPR037C
0.6: yeast gene YDR178W | yeast gene YEL039C | yeast gene YGL187C | yeast gene YJL102W | yeast gene YKL148C | yeast gene YLR304C | yeast gene YNL104C | yeast gene YNL256W
1.0: yeast gene YAL039C | yeast gene YBL022C | yeast gene YBR091C | yeast gene YDL198C | yeast gene YDR298C | yeast gene YGL191W | yeast gene YGR174C | yeast gene YJR045C | yeast gene YJR121W | yeast gene YLR038C | yeast gene YOR142W
0.5: yeast gene YDR529C | yeast gene YJL133W | yeast gene YKL141W | yeast gene YKR066C | yeast gene YOR176W
0.9: yeast gene YBL030C | yeast gene YBL099W | yeast gene YGR082W | yeast gene YLR348C

Reference: US8192962B2, “Processes for detecting toxic substances” (Daikin Industries, Ltd., priority 2001, dated 2012)
